# Measurements as given in US20190322676A1, “CERAMIDE GALACTOSYLTRANSFERASE INHIBITORS FOR THE TREATMENT OF DISEASE” (BioMarin Pharmaceutical Inc., priority 2016, published 2019).
# Structures can show the parent of a compound that is named as a salt.
# Molecular target: T1, human CGT (ceramide galactosyltransferase), CHO/CGT lysate (Homo sapiens, UniProt Q16880)
# T1 construct: Full-length human CGT cDNA was cloned into the BamH1/Xho1 site of pcDNA3.1 (+); expressed in transfected cells; host or cells: Chinese hamster ovary (CHO) cells; lysate prepared with M-PER
# T1 sequence (Q16880 21-541): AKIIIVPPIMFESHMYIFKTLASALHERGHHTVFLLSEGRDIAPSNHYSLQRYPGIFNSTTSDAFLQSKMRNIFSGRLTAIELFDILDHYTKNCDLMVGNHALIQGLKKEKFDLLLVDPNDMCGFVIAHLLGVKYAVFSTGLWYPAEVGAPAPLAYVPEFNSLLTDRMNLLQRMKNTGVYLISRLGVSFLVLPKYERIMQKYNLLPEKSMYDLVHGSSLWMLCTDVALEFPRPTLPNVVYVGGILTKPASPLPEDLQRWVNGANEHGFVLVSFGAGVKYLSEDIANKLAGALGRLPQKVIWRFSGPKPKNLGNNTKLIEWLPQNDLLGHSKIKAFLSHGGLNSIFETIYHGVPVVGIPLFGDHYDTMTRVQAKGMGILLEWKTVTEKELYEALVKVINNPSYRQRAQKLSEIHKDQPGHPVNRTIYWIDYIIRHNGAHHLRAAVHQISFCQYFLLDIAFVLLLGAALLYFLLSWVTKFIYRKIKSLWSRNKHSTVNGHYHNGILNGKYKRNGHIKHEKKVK
# Experiment: CGT enzyme assay, RapidFire/MS/MS readout (Table 1 ranges with one asterisk *)
# Assay type: biochemical
# Conditions: RapidFire method (range with one asterisk *)
# Summary of the method: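 Lysate (4 μg) of CHO cells transfected with full-length human CGT incubated 1 h at 37 °C with compound (0.001–50 μM) in pH 7.2 HEPES buffer with 10 μM C6-NBD-dihydro-ceramide, 17.5 μM UDP-galactose, Mg2+/Mn2+, CHAPS, BSA, 0.5% DMSO; ** set also contained 0.01% Tween 80. Product quantified by RapidFire/MS/MS, normalized to internal standard; IC50 from sigmoidal variable-slope fits.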
row,SMILES,IC50
1,"CCCCOc1ccc(C(F)(F)[C@@H](NS(=O)(=O)c2ccc3cc(OC4CCCC4)ccc3c2)C(=O)N2CCC(N)CC2)cc1 [Compound 80-2, (S)—N-(3-(4-aminopiperidin-1-yl)-1-(4-butoxyphenyl)-1,1-difluoro-3-oxopropan-2-yl)-6-(cyclopentyloxy)naphthalene-2-sulfonamide]",1 to 10 µM
2,"CCCCOc1ccc(C(F)(F)[C@H](NS(=O)(=O)c2ccc(OCC3CCCCC3)cc2)C(=O)N2CCC(N)CC2)cc1 [Compound 81-1, (R)—N-(3-(4-aminopiperidin-1-yl)-1-(4-butoxyphenyl)-1,1-difluoro-3-oxopropan-2-yl)-4-(cyclohexylmethoxy)benzenesulfonamide trifluoroacetate]",1 to 10 µM
3,"CCCCOc1ccc(C(F)(F)[C@@H](NS(=O)(=O)c2ccc(OCC3CCCCC3)cc2)C(=O)N2CCC(N)CC2)cc1 [Compound 81-2, (S)—N-(3-(4-aminopiperidin-1-yl)-1-(4-butoxyphenyl)-1,1-difluoro-3-oxopropan-2-yl)-4-(cyclohexylmethoxy)benzenesulfonamide trifluoroacetate]",30 to 100 µM
4,"CCCCOc1ccc(C(F)(F)[C@H](NS(=O)(=O)c2ccc3cc(OC4CCCC4)ccc3c2)C(=O)N2C3CCC2CC(N)C3)cc1 (stereo partly drawn) [Compound 82-1, N-((2R)-3-(3-amino-8-azabicyclo[3.2.1]octan-8-yl)-1-(4-butoxyphenyl)-1,1-difluoro-3-oxopropan-2-yl)-6-(cyclopentyloxy)naphthalene-2-sulfonamide trifluoroacetate]",< 1 µM
5,"CCCCOc1ccc(C(F)(F)[C@@H](NS(=O)(=O)c2ccc3cc(OC4CCCC4)ccc3c2)C(=O)N2C3CCC2CC(N)C3)cc1 (stereo partly drawn) [Compound 82-2, N-((2S)-3-(3-amino-8-azabicyclo[3.2.1]octan-8-yl)-1-(4-butoxyphenyl)-1,1-difluoro-3-oxopropan-2-yl)-6-(cyclopentyloxy)naphthalene-2-sulfonamide trifluoroacetate]",1 to 10 µM
6,"CCCCOc1cccc(C(F)(F)[C@H](NS(=O)(=O)c2ccc3cc(OC4CCCC4)ccc3c2)C(=O)N2CCC(N)CC2)c1 [Compound 83-1, (R)—N-(3-(4-aminopiperidin-1-yl)-1-(3-butoxyphenyl)-1,1-difluoro-3-oxopropan-2-yl)-6-(cyclopentyloxy)naphthalene-2-sulfonamide trifluoroacetate]",< 1 µM
7,"CCCCOc1cccc(C(F)(F)[C@@H](NS(=O)(=O)c2ccc3cc(OC4CCCC4)ccc3c2)C(=O)N2CCC(N)CC2)c1 [Compound 83-2, (S)—N-(3-(4-aminopiperidin-1-yl)-1-(3-butoxyphenyl)-1,1-difluoro-3-oxopropan-2-yl)-6-(cyclopentyloxy)naphthalene-2-sulfonamide trifluoroacetate]",1 to 10 µM
8,"NC1CC2CCC(C1)N2C(=O)[C@@H](NS(=O)(=O)c1ccc(OCC2CCCCC2)cc1)C(F)(F)c1ccc(Oc2ccccc2)cc1 (stereo partly drawn) [Compound 84-1, N-((2R)-3-(3-amino-8-azabicyclo[3.2.1]octan-8-yl)-1,1-difluoro-3-oxo-1-(4-phenoxyphenyl)propan-2-yl)-4-(cyclohexylmethoxy)benzenesulfonamide]",1 to 10 µM
9,"NC1CC2CCC(C1)N2C(=O)[C@H](NS(=O)(=O)c1ccc(OCC2CCCCC2)cc1)C(F)(F)c1ccc(Oc2ccccc2)cc1 (stereo partly drawn) [Compound 84-2, N-((2S)-3-(3-amino-8-azabicyclo[3.2.1]octan-8-yl)-1,1-difluoro-3-oxo-1-(4-phenoxyphenyl)propan-2-yl)-4-(cyclohexylmethoxy) benzenesulfonamide]",10 to 30 µM
10,"CN([C@H](C(=O)N1C2CCC1CC(N)C2)C(F)(F)c1ccc(Oc2ccccc2)cc1)S(=O)(=O)c1ccc(OCC2CCCCC2)cc1 (stereo partly drawn) [Compound 85-1, N-((2R)-3-(3-amino-8-azabicyclo[3.2.1]octan-8-yl)-1,1-difluoro-3-oxo-1-(4-phenoxyphenyl)propan-2-yl)-4-(cyclohexylmethoxy)-N-methylbenzene sulfonamide trifluoroacetate]",1 to 10 µM
11,"CN([C@@H](C(=O)N1C2CCC1CC(N)C2)C(F)(F)c1ccc(Oc2ccccc2)cc1)S(=O)(=O)c1ccc(OCC2CCCCC2)cc1 (stereo partly drawn) [Compound 85-2, N-((2S)-3-(3-amino-8-azabicyclo[3.2.1]octan-8-yl)-1,1-difluoro-3-oxo-1-(4-phenoxyphenyl)propan-2-yl)-4-(cyclohexylmethoxy)-N-methylbenzenesulfonamide trifluoroacetate]",10 to 30 µM
12,"NC1CC2CCC(C1)N2C(=O)[C@@H](NS(=O)(=O)c1ccc2cc(OC3CCCC3)ccc2c1)C(F)(F)c1ccc(Oc2ccccc2)cc1 (stereo partly drawn) [Compound 86-1, N-((2R)-3-(3-amino-8-azabicyclo[3.2.1]octan-8-yl)-1,1-difluoro-3-oxo-1-(4-phenoxyphenyl)propan-2-yl)-6-(cyclopentyloxy)naphthalene-2-sulfonamide trifluoroacetate]",< 1 µM
13,"NC1CC2CCC(C1)N2C(=O)[C@H](NS(=O)(=O)c1ccc2cc(OC3CCCC3)ccc2c1)C(F)(F)c1ccc(Oc2ccccc2)cc1 (stereo partly drawn) [Compound 86-2, N-((2S)-3-(3-amino-8-azabicyclo[3.2.1]octan-8-yl)-1,1-difluoro-3-oxo-1-(4-phenoxyphenyl)propan-2-yl)-6-(cyclopentyloxy)naphthalene-2-sulfonamide trifluoroacetate]",1 to 10 µM
14,"CN([C@H](C(=O)N1C2CCC1CC(N)C2)C(F)(F)c1ccc(Oc2ccccc2)cc1)S(=O)(=O)c1ccc2cc(OC3CCCC3)ccc2c1 (stereo partly drawn) [Compound 87-1, N-((2R)-3-(3-amino-8-azabicyclo[3.2.1]octan-8-yl)-1,1-difluoro-3-oxo-1-(4-phenoxyphenyl)propan-2-yl)-6-(cyclopentyloxy)-N-methylnaphthalene-2-sulfonamide trifluoroacetate]",< 1 µM
15,"CN([C@@H](C(=O)N1C2CCC1CC(N)C2)C(F)(F)c1ccc(Oc2ccccc2)cc1)S(=O)(=O)c1ccc2cc(OC3CCCC3)ccc2c1 (stereo partly drawn) [Compound 87-2, N-((2S)-3-(3-amino-8-azabicyclo[3.2.1]octan-8-yl)-1,1-difluoro-3-oxo-1-(4-phenoxyphenyl)propan-2-yl)-6-(cyclopentyloxy)-N-methylnaphthalene-2-sulfonamide trifluoroacetate]",1 to 10 µM
16,"NC1CC2CCC(C1)N2C(=O)[C@@H](NS(=O)(=O)c1ccc2c(cnn2CC2CCCC2)c1)C(F)(F)c1ccc(Cl)cc1 (stereo partly drawn) [Compound 88-1, N-((2R)-3-(3-amino-8-azabicyclo[3.2.1]octan-8-yl)-1-(4-chlorophenyl)-1,1-difluoro-3-oxopropan-2-yl)-1-(cyclopentylmethyl)-1H-indazole-5-sulfonamide]",1 to 10 µM
17,"NC1CC2CCC(C1)N2C(=O)[C@H](NS(=O)(=O)c1ccc2c(cnn2CC2CCCC2)c1)C(F)(F)c1ccc(Cl)cc1 (stereo partly drawn) [Compound 88-2, N-((2S)-3-(3-amino-8-azabicyclo[3.2.1]octan-8-yl)-1-(4-chlorophenyl)-1,1-difluoro-3-oxopropan-2-yl)-1-(cyclopentylmethyl)-1H-indazole-5-sulfonamide]",30 to 100 µM
18,"COc1cc(C(F)(F)[C@H](NS(=O)(=O)c2ccc3cc(OC4CCCC4)ccc3c2)C(=O)N2C3CCC2CC(N)C3)ccc1Br (stereo partly drawn) [Compound 89-1, N-((2R)-3-(3-amino-8-azabicyclo[3.2.1]octan-8-yl)-1-(4-bromo-3-methoxyphenyl)-1,1-difluoro-3-oxopropan-2-yl)-6-(cyclopentyloxy)naphthalene-2-sulfonamide]",< 1 µM
19,"COc1cc(C(F)(F)[C@@H](NS(=O)(=O)c2ccc3cc(OC4CCCC4)ccc3c2)C(=O)N2C3CCC2CC(N)C3)ccc1Br (stereo partly drawn) [Compound 89-2, N-((2S)-3-(3-amino-8-azabicyclo[3.2.1]octan-8-yl)-1-(4-bromo-3-methoxyphenyl)-1,1-difluoro-3-oxopropan-2-yl)-6-(cyclopentyloxy)naphthalene-2-sulfonamide]",1 to 10 µM
20,"CCCCOc1cccc(C(F)(F)[C@H](NS(=O)(=O)c2ccc3cc(OC4CCCC4)ccc3c2)C(=O)N2C3CCC2CC(N)C3)c1 (stereo partly drawn) [Compound 90-1, N-((2R)-3-(3-amino-8-azabicyclo[3.2.1]octan-8-yl)-1-(3-butoxyphenyl)-1,1-difluoro-3-oxopropan-2-yl)-6-(cyclopentyloxy)naphthalene-2-sulfonamide trifluoroacetate]",< 1 µM
21,"CCCCOc1cccc(C(F)(F)[C@@H](NS(=O)(=O)c2ccc3cc(OC4CCCC4)ccc3c2)C(=O)N2C3CCC2CC(N)C3)c1 (stereo partly drawn) [Compound 90-2, N-((2S)-3-(3-amino-8-azabicyclo[3.2.1]octan-8-yl)-1-(3-butoxyphenyl)-1,1-difluoro-3-oxopropan-2-yl)-6-(cyclopentyloxy)naphthalene-2-sulfonamide trifluoroacetate]",1 to 10 µM
22,"NC1CC2CCC(C1)N2C(=O)[C@@H](NS(=O)(=O)c1ccc2c(cnn2CC2CCCC2)c1)C(F)(F)c1ccc(C(F)(F)F)cc1 (stereo partly drawn) [Compound 92-1, N-((2R)-3-(3-amino-8-azabicyclo[3.2.1]octan-8-yl)-1,1-difluoro-3-oxo-1-(4-(trifluoromethyl)phenyl)propan-2-yl)-1-(cyclopentylmethyl)-1H-indazole-5-sulfonamide]",< 1 µM
